“Also recorded” adds a separate entry of the source.
System: lipid-peroxide formation in cerebral homogenate
Assay: Lipid-peroxide formation inhibiting activity (TBA method, cerebral homogenate)
Type: biochemical, Wistar strain male rat
Settings: at 100 μM; rat cerebral homogenate, 30 minutes at 37° C
Method: (1) Lipid-peroxide formation inhibiting activity
(a) Preparation of cerebral homogenate
[…]. Then, cerebral irrigation was made with ice-cold physiological saline solution buffered with 50 mM phosphoric acid (pH value of 7.4, hereinafter referred to as "PBS"), and the whole brain was extracted. After removing the cerebellum, the cerebrum was weighed in the wet state, added with PBS of 9 times the weight and homogenized in ice-cold water with a teflon homogenizer. The cerebral homogenate was centrifuged at […] and 2200 rpm for 10 minutes, and 0.3 ml of the supernatant was partitioned into a ground stoppered light-resistant test tube to prepare a cerebral homogenate to be used for drug evaluation.
(b) Evaluation of test drug
The cerebral homogenate which was prepared by the above procedure (a) was added with 0.6 ml of PBS and 10 μl of ethanol solution which contained the test drug of […] in final concentration and incubated for 30 minutes in a water bath at 37° C. Then, the mixture was added with 200 μl of aqueous 35% solution of perchloric acid and centrifuged at 4° C and 2,600 rpm for 10 minutes to collect the supernatant.
In addition, 10 μl of ethanol (blank) was added instead of the test drug.
(c) Determination of lipid peroxide
The supernatant of 0.1 ml which was obtained in the above procedure (b) was added with 0.2 ml of aqueous 8.1% sodium dodecyl sulfate solution, 1.5 ml of 20% acetic acid buffer solution (pH of 3.5), 1.5 ml of 0.67% 2-thiobarbituric acid solution and 0.7 ml of distilled water and mixed. The mixed solution was heated for 60 minutes in boiling water bath, quenched with ice-cold water and added with 1.0 ml of distilled water and 5.0 ml of a mixture solution of pyridine and butanol (1:15). After 30 seconds of shaking, the mixed solution was centrifuged at 3,000 rpm for 10 minutes, and the supernatant was collected as the sample for lipid peroxide measurement.
In addition, 0.1 ml of Lipoperoxide-test reagent (Wako Pure Chemicals Co., Ltd.: 1,1,3,3-tetraethoxypropane is contained by […]) was added instead of the cerebral homogenate obtained in the above procedure (b) to prepare the reference solution
The amount of lipid peroxide was measured at a excitation wavelength of 515 nm and a fluorescence wavelength of 550 nm using a fluoro-spectrophotometer (Model 204, made by Hitachi, Ltd.) and calculated by the following formula: [formula] where, F=fluorescence intensity of the reference solution
f=fluorescence intensity of the test drug.
Then, the inhibition rates of the test drugs at each concentration were obtained for the TBA value of the blank under (b) above and IC value were calculated by the method of least square means.
With `O=C(O)Cc1ccc(N2N=C(c3cccnc3)CC2=O)cc1` [Compound No. 9, 4-[3-(3-pyridyl)-5-oxo-2-pyrazolin-1-il] phenylacetic acid] the “Percent inhibition at 100 μM” value was 2.6%. For `O=C(O)c1ccc(N2N=C(Cn3ccnc3)CC2=O)cc1` [Compound No. 49], the “Percent inhibition at 100 μM” value was 12.9%. In the case of `O=C(O)c1ccc(N2N=C(c3cccnc3)CC2=O)cc1` [compound 7], the “Percent inhibition at 100 μM” value is reported as 1.9%. For `O=C1CC(c2cccnc2)=NN1c1ccccn1` [compound 12], the “Percent inhibition at 100 μM” value was 43.2%. For `CCC1C(=O)N(C2CCCCC2)N=C1c1cccnc1` (stereo not shown) [compound 21], the “Percent inhibition at 100 μM” value was 1.0%. For `CCCC1C(=O)N(C2CCCCC2)N=C1c1cccnc1` (stereo not shown) [compound 23], the “Percent inhibition at 100 μM” value was 46.1%. In the case of `O=C(O)c1ccc(N2N=C(Cc3cccnc3)CC2=O)cc1` [compound 29], the “Percent inhibition at 100 μM” value is reported as 17.6%. In the case of `O=C1CC(Cn2ccnc2)=NN1C1CCCCC1` [compound 40], the “Percent inhibition at 100 μM” value is reported as 39.4%. For `COc1ccc(N2N=C(Cn3ccnc3)CC2=O)cc1` [compound 43], the “Percent inhibition at 100 μM” value was 30.2%. For `CCC1C(=O)N(c2ccccc2)N=C1Cn1ccnc1` (stereo not shown) [compound 52], the “Percent inhibition at 100 μM” value was 4.3%. In the case of `CC(C)C1C(=O)N(c2ccccc2)N=C1Cn1ccnc1` (stereo not shown) [compound 55], the “Percent inhibition at 100 μM” value is reported as 27.3%.

Same assay, conditions: rat cerebral homogenate, incubated 30 minutes at 37° C
With `O=C1CC(c2cccnc2)=NN1c1ccccc1` [Compound No. 1, 1-phenyl-3-(3-pyridyl)-2-pyrazolin-5-one] the IC50 was 23.6 µM. For `COc1ccc(N2N=C(c3cccnc3)CC2=O)cc1` [Compound No. 4], the IC50 was 37 µM. For `CCOc1ccc(N2N=C(c3cccnc3)CC2=O)cc1` [Compound No. 5], the IC50 was 12.9 µM. `O=C1CC(c2cccnc2)=NN1c1ccc(O)cc1` [Compound No. 10, 1-(4-hydroxyphenyl)-3-(3-pyridyl)-2-pyrazolin-5-one] gave an IC50 of 102 µM. In the case of `Cc1ccc(N2N=C(c3cccnc3)CC2=O)cc1` [compound 2], the IC50 is reported as 10.3 µM. Compound `CCc1ccc(N2N=C(c3cccnc3)CC2=O)cc1` [compound 3] has an IC50 of 4 µM. In the case of `O=C1CC(c2cccnc2)=NN1c1ccc(Cl)cc1` [compound 6], the IC50 is reported as 4.3 µM. In the case of `CCOC(=O)Cc1ccc(N2N=C(c3cccnc3)CC2=O)cc1` [compound 8], the IC50 is reported as 13.6 µM. Compound `O=C1CC(c2cccnc2)=NN1C1CCCCC1` [compound 11] has an IC50 of 16.9 µM. Work on `O=C1CC(c2cccnc2)=NN1c1nc2ccccc2s1` [compound 13] yielded an IC50 of 84.1 µM. For `CC1C(=O)N(c2ccccc2)N=C1c1cccnc1` (stereo not shown) [compound 14], the IC50 was 38.9 µM. In the case of `Cc1ccc(N2N=C(c3cccnc3)C(C)C2=O)cc1` (stereo not shown) [compound 15], the IC50 is reported as 12.5 µM. With `COc1ccc(N2N=C(c3cccnc3)C(C)C2=O)cc1` (stereo not shown) [compound 16] the IC50 was 46.3 µM. `CC1C(=O)N(c2ccc(Cl)cc2)N=C1c1cccnc1` (stereo not shown) [compound 17] showed an IC50 of 7.1 µM. `CC1C(=O)N(C2CCCCC2)N=C1c1cccnc1` (stereo not shown) [compound 18] gave an IC50 of 29.3 µM. Work on `CC1C(=O)N(c2ccccn2)N=C1c1cccnc1` (stereo not shown) [compound 19] yielded an IC50 of 12.3 µM. For `CCC1C(=O)N(c2ccccc2)N=C1c1cccnc1` (stereo not shown) [compound 20], the IC50 was 29.4 µM. With `CCCC1C(=O)N(c2ccccc2)N=C1c1cccnc1` (stereo not shown) [compound 22] the IC50 was 28.2 µM. `O=C1CC(Cc2cccnc2)=NN1c1ccccc1` [compound 24] gave an IC50 of 16.4 µM. In the case of `Cc1ccc(N2N=C(Cc3cccnc3)CC2=O)cc1` [compound 25], the IC50 is reported as 7.4 µM. `COc1ccc(N2N=C(Cc3cccnc3)CC2=O)cc1` [compound 26] gave an IC50 of 23.6 µM. With `CCOc1ccc(N2N=C(Cc3cccnc3)CC2=O)cc1` [compound 27] the IC50 was 12.2 µM. `O=C1CC(Cc2cccnc2)=NN1c1ccc(Cl)cc1` [compound 28] gave an IC50 of 4.1 µM. `O=C1CC(Cc2cccnc2)=NN1C1CCCCC1` [compound 30] gave an IC50 of 24 µM. Work on `O=C1CC(Cc2cccnc2)=NN1c1ccccn1` [compound 31] yielded an IC50 of 6.2 µM. `O=C1CC(c2ccco2)=NN1c1ccccc1` [compound 32] showed an IC50 of 4.3 µM. For `Cc1ccc(N2N=C(c3ccco3)CC2=O)cc1` [compound 33], the IC50 was 4.1 µM. In the case of `COc1ccc(N2N=C(c3ccco3)CC2=O)cc1` [compound 34], the IC50 is reported as 6.5 µM. `O=C1CC(c2ccco2)=NN1c1ccc(Cl)cc1` [compound 35] showed an IC50 of 3.7 µM. In the case of `O=C1CC(c2ccco2)=NN1C1CCCCC1` [compound 36], the IC50 is reported as 8.3 µM. With `O=C1CC(c2ccco2)=NN1c1ccccn1` [compound 37] the IC50 was 15.4 µM. `O=C1CC(Cn2ccnc2)=NN1c1ccccc1` [compound 38] gave an IC50 of 60.1 µM. Work on `Cc1ccc(N2N=C(Cn3ccnc3)CC2=O)cc1` [compound 39] yielded an IC50 of 43 µM. `Cc1cccc(N2N=C(Cn3ccnc3)CC2=O)c1` [compound 41] showed an IC50 of 60 µM. `CCc1ccc(N2N=C(Cn3ccnc3)CC2=O)cc1` [compound 42] gave an IC50 of 24.4 µM. `O=C1CC(Cn2ccnc2)=NN1c1ccc(Cl)cc1` [compound 44] showed an IC50 of 22.7 µM. With `O=C1CC(Cn2ccnc2)=NN1c1ccc(Cl)c(Cl)c1` [compound 45] the IC50 was 11 µM. In the case of `CCOC(=O)Cc1ccc(N2N=C(Cn3ccnc3)CC2=O)cc1` [compound 46], the IC50 is reported as 60.5 µM. Compound `CCOC(=O)c1ccc(N2N=C(Cn3ccnc3)CC2=O)cc1` [compound 47] has an IC50 of 35.1 µM. Work on `O=C1CC(Cn2ccnc2)=NN1c1ccccn1` [compound 51] yielded an IC50 of 51.3 µM. Compound `CCC1C(=O)N(c2ccc(C)cc2)N=C1Cn1ccnc1` (stereo not shown) [compound 53] has an IC50 of 38.2 µM. `CCC1C(=O)N(c2ccc(Cl)cc2)N=C1Cn1ccnc1` (stereo not shown) [compound 54] showed an IC50 of 37.8 µM.

System: not given
Assay: not given
Settings: cited from earlier work
In the case of `COC1=C(OC)C(=O)C(CCCCCCCCCCO)=C(C)C1=O` [Idebenon], the solubility in water is given as “difficult to dissolve in water”.

System: lipid peroxidation due to active oxygen species
Assay: not given
Settings: prior art; cited from earlier work
In the case of `COC1=C(OC)C(=O)C(CCCCCCCCCCO)=C(C)C1=O` [Idebenon], the “inhibition of lipid peroxidation” value is listed as “known to inhibit lipid peroxidation due to active oxygen species”. In the case of `CCN(CC)Cc1nccn1-c1ccc([N+](=O)[O-])cc1C(=O)c1ccccc1Cl` [nizofenone], the “inhibition of lipid peroxidation” value is given as “known to inhibit lipid peroxidation due to active oxygen species”. For vitamin E, the “inhibition of lipid peroxidation” value is given as “known to inhibit lipid peroxidation due to active oxygen species; also recorded: not sufficient to inhibiting lipid peroxidation”.

System: central nervous system
Assay: not given
Settings: IYAKUHIN KENKYU, 16, 1 (1985); cited from earlier work
For `CCN(CC)Cc1nccn1-c1ccc([N+](=O)[O-])cc1C(=O)c1ccccc1Cl` [nizofenone], the “depressing the central nervous system” value is given as “defective in depressing the central nervous system”.

System: cerebral ischemia model
Assay: Cerebral protective activity in cerebral ischemia model
Type: in vivo, Wistar-strain male rat
Settings: 10 mg/kg into the duodenum, 30 minutes before 10 minutes ischemia; after release of ischemia
Method: (2) Cerebral protective activity in cerebral ischemia model
A Wistar-strain male rat weighing about 400 g was intramuscularly dosed with 0.6 mg of d-tubocurarine to immobilize. After inserting a trachea cannula, the head was fixed to the stereofaxic apparatus under artificial respiration. After incising the head skin and drilling the cranial bone, an electrode for recording electroencephalogram was placed on the surface of the left frontal cortex. After fixing the electrode to the cranial bone using dental cement, the rat was supported in the rear position. Then, a cannula for measuring the blood pressure was intubated to the left femoral artery and another cannula for additionally dosing d-tubocurarine was also intubated to the left femoral vein. The heart rate was measured by a cardiotachometer triggered by pulse pressure.
After reaching the stable state of several parameters including blood pressure, heart rate and electroencephalogram, the effective ingredient of the present invention which was previously prepared so as to form suspension of 1 ml/kg with 1% tragacanth gum solution was directly dosed into the duodenum in a dose of 10 mg/kg at 30 minutes before cerebral ischemia loading. The control group were dosed by the same volume of 1% tragacanth gum solution only.
The blood pressure, heart rate and electroencephalogram were monitored 10 to 20 minutes after drug dosing with the multipurpose polygraph (Model RM-85, made by Nihon Kohden Co., Ltd.), and operation was made according to the following procedure:
Firstly, the ribs were freed from the left costal cartilage and the chest was opened. Then, 30 minutes after drug dosing, the left common carotid artery, left vertebral artery and brachiocephalic artery were simultaneously plugged at the origin of the arteries with artery clips to stop the blood flow into the brain for 10 minutes.
The resumption of blood flow into the brain was conducted by simultaneously releasing the artery clips which were attached to said positions.
The cerebral protective activity of the drug against the disturbance after the release of cerebral ischemic load was investigated by the restoration of electroencephalogram.
During the experiment, the rectal temperature was maintained at 37-38° C. with a heating pad and continuously recorded on the recorder along with electroencephalogram, femoral blood pressure and heart rate.
In the case of `O=C1CC(c2cccnc2)=NN1c1ccccc1` [Compound No. 1, 1-phenyl-3-(3-pyridyl)-2-pyrazolin-5-one], the restoration of electroencephalogram is reported as “the electroencephalogram appeared with restoration during the releasing”. For `O=C1CC(Cc2cccnc2)=NN1c1ccccc1` [compound 24], the restoration of electroencephalogram was “the electroencephalogram appeared with restoration during the releasing”.

Same assay, conditions: 10 mg/kg into the duodenum; after release of ischemia
With `O=C1CC(c2cccnc2)=NN1c1ccccc1` [Compound No. 1, 1-phenyl-3-(3-pyridyl)-2-pyrazolin-5-one] the “function of the pulsation system” value was “the function of the pulsation system was activated and normalized”. For `O=C1CC(Cc2cccnc2)=NN1c1ccccc1` [compound 24], the “function of the pulsation system” value was “the function of the pulsation system was activated and normalized”.

Same assay, conditions: 10 mg/kg into the duodenum; control died 75 minutes in average from blood reflow
With `O=C1CC(c2cccnc2)=NN1c1ccccc1` [Compound No. 1, 1-phenyl-3-(3-pyridyl)-2-pyrazolin-5-one] the “survival period of time” value was “the survival period of time of the animals of the group was clearly extended”. With `O=C1CC(Cc2cccnc2)=NN1c1ccccc1` [compound 24] the “survival period of time” value was “the survival period of time of the animals of the group was clearly extended”.

— US5089515A, “Lipid-peroxide formation inhibiting composition and novel compounds useful therefor” (priority 1986, dated 1992)
